According to patent US10179913B2, “MicroRNA-328 anti-sense composition and therapeutic use” (KAOHSIUNG MEDICAL UNIVERSITY, priority 2015, dated 2019):
“Also recorded” adds a separate entry of the source. Marks after values point to notes of the source that are not given here. l = locked nucleic acid (LNA); d = 2'-deoxy (DNA)

Columns and labels:
[1] = tested on: myopia-induced C57BL/6J mice; test: Example 4: efficacy in myopia-induced mice, delta axial length; assay type: in vivo; conditions: for reduction of delta axial length compared to control group: 1 μM on day 30, 37 and 44, versus saline; for activity in treating myopia in mice (in words) / Delta axial length, mm mean (SD) / average delta axial length compared with control animals (in words): 1 μM; for activity in treating myopia in mice (in words): decrease of average axial length; for Delta axial length, mm mean (SD): right (myopia) minus left eye, 30 μL to right eye on day 30, 37 and 44, eyes collected day 51; for average delta axial length compared with control animals (in words): versus saline, Mann-Whitney U test
Description: The 21 days old C57BL/6J mice were purchased from the National Laboratory Animal Center, Taiwan. All animal experiments were in compliance with the ARVO Statement for the Use of Animals in Ophthalmic and Vision Research. The procedure of myopia induction is described briefly as the following: Right eyes of the 23 days old mice were covered to induce myopia (i.e. nearsightedness) and the left eyes were uncovered. Then the right eyes of the myopia-induced mice were treated with 30 μL of saline (i.e. control group), DNA16mer, DNA17mer, LNA403, LNA404, or LNA405, at 1 μM on 30th, 37th and 44th day. Mice were sacrificed on 51th day and the eyes were collected. The isolated eyes were photographed under a dissection microscope and the axial lengths were measured using […] Myopia (nearsightedness) causes elongation of axial length, which is the major pathological change in myopia. The difference of axial length (i.e. delta axial length) between the covered right eye and the non-covered left eye of the same mouse indicates the severity of myopia. Statistical evaluation was done by using Mann-Whitney U test. Analysis with p-values<0.05 being considered significant.

[2] = tested on: myopia-induced C57BL/6J mice; test: Example 5: validation of DNA 16mer and LNA 403 versus atropine in myopia-induced mice; assay type: in vivo; conditions: for Mean of delta AXL: right eye covered 4 weeks, 30 μL on day 30, 37 and 44, day 51
Description: The 21 days old C57BL/6J mice were purchased from the National Laboratory Animal Center, Taiwan. All animal experiments were in compliance with the ARVO Statement for the Use of Animals in Ophthalmic and Vision Research. The procedure of myopia induction is described briefly as the following: Right eyes of the 23 days old mice were covered for 4 weeks to induce myopia (i.e. nearsightedness) and the left eyes were uncovered. Then the right eyes of the myopia-induced mice were treated with 30 μL of saline (i.e. negative control group), 1% atropine (i.e. positive control group), DNA16mer or LNA403 at 1 μM on 30th, 37th and 44th day. Mice were sacrificed on 51th day and the eyes were collected. The isolated eyes were photographed under a dissection microscope and the axial lengths were measured using imageJ and a proprietary software for automatic measure. Myopia (nearsightedness) causes elongation of axial length, which is the major pathological change in myopia. The difference of axial length (i.e. delta axial length) between the covered right eye and the non-covered left eye of the same mouse indicates the severity of myopia. Statistical evaluation was done by using Mann-Whitney U test. Analysis with p-values <0.05 being considered significant.

[3] = tested on: miR-328; test: In vitro inhibition of miR-328 expression by antisense oligonucleotides transfected into ARPE-19 RPE cells (qRT-PCR, normalized to U6); assay type: cell-based, human; conditions: for inhibitory effect on miR-328 expression: RPE cells (ARPE-19), Lipofectamine 2000 transfection, 24 hours; for inhibition of miR-328 expression in vitro (in words): RPE cells, 30, 50 and 100 nM
Description: Cell Culture, Treatments, and Transfection
An RPE cell line called “ARPE-19” was grown in Dulbecco's modified Eagle's medium (DMEM)/F12 medium. The cell line was grown with 1% penicillin/streptomycin and 10% heat-inactivated fetal bovine serum (FBS) at 37° C. in a humidified atmosphere of 95% air/[…] carbon dioxide (CO2). To conduct the transfection experiments, cells were seeded into a 12-well plate at a density of 1×10^5 cells/well. After achieving 70% confluence in a well, antisense oligonucleotides (concentrations of 30, 50 and 100 nM) were transfected with Lipofectamine 2000 (Invitrogen) according to the manufacturer's instructions. After 24 hours of incubation, cells were lysed for further studies.
Detect the Inhibition of miR-328 Expression by Antisense Oligonucleotides
Total RNA was extracted from cultured cells using Trizol according to the manufacturer's instructions. RNA purity was checked using A260/A280 readings. miR-328 was first reversed transcribed to miR-328 cDNA using the following procedure: 5 ng of RNA was reverse transcribed with miR-328 specific primer and MultiScribe reverse transcriptase kit (Applied Biosystems). To measure the miR-328 expression, quantitative real-time PCR was performed on an ABI 7500 real-time PCR machine (Applied Biosystems) with miR-328 specific probe according to manufacturer's instructions (Applied Biosystems). The inhibitory effect by antisense oligonucleotides was evaluated by measuring the level of miR-328 cDNA by quantitative real-time PCR. The expression level of miR-328 was normalized to that of a small non-coding nuclear RNA U6 as the internal control.

[4] = Safety in animal studies; assay type: in vivo
[5] = tested on: myopia-induced C57BL/6J mice; test: Example 6: confirmation of DNA 16mer by a CRO in myopia-induced mice; assay type: in vivo; conditions: for left eye axial, mm Mean: left eye uncovered
From the text: The procedure of myopia induction is: The 21 days old C57BL/6J mice were purchased from the National Laboratory Animal Center, Taiwan. All animal experiments were in compliance with the ARVO Statement for the Use of Animals in Ophthalmic and Vision Research. The procedure of myopia induction is described briefly as the following: Right eyes of the 23 days old mice were covered for 4 weeks to induce myopia and the left eyes were uncovered. Then the right eyes of the myopia-induced mice were treated with […], of saline (i.e. negative control group), 1% atropine (i.e. positive control group), 10 nM, 100 nM, and 1 μM of DNA 16mer on 30th, 37th and 44th day. Mice were sacrificed on 51th day and the eyes were collected. The isolated eyes were photographed under a dissection microscope and the axial lengths were measured using imageJ and a proprietary software for automatic measure. Myopia (nearsightedness) causes elongation of axial length, which is the major pathological change in myopia. The difference of axial length (i.e. delta axial length) between the covered right eye and the non-covered left eye of the same mouse indicates the severity of myopia.

[6] = tested on: myopic pigmented rabbits; test: Example 7: DNA 16mer in myopic pigmented rabbits, delta axial length by A-scan; assay type: in vivo, rabbit; conditions: 20 μL to right eye every other day from day 35, AXL of day 61
Description: The procedure of myopia induction: The 3 days old pigmented rabbits were purchased from the DA-ZONG livestock farm, Taiwan. All animal experiments were in compliance with the ARVO Statement for the Use of Animals in Ophthalmic and Vision Research. On the age of 7 days, the right eye of the rabbit was covered for 8 weeks to induce myopia, and the left eye left uncovered. The axial lengths (AXL) of both eyes were measured by A-scan (Sonomed®, PACSCAN 300A, USA) once a week since day 21. We defined myopia as right eye AXL is longer than left eye AXL by 0.2 mm or longer on day 35. If a rabbit reached this defined criterion, the right eye of such a myopic rabbit was treated with […], of saline (i.e. control group) or DNA16mer (20 μL) at 10 μM or 50 uM every other day since day 35 till day 63. The final AXL measured on day 61 was used to obtain to calculate the difference between right AXL and left AXL (i.e. delta AXL). If there is no therapeutic effect, the delta AXL will be a positive value.

| Molecule | reduction of delta axial length compared to control group [1] | Delta axial length, mm mean (SD) [1] | inhibitory effect on miR-328 expression ([3]; 30 nM) | inhibitory effect on miR-328 expression ([3]; 50 nM) | inhibitory effect on miR-328 expression ([3]; 100 nM) | inhibition of miR-328 expression in vitro (in words) [3] | other results |
| --- | --- | --- | --- | --- | --- | --- | --- |
| 5′-+C*+G*+G*+A*A*G*G*G*C*A*G*A*G*A*G*G*+G*+C*+C*+A-3′ (antisense CGGAAGGGCAGAGAGGGCCA; sugars from the 5' end l4 d12 l4, all phosphorothioate, methylation of C not given here) [LNA403, LNA-modified and PS bond-modified anti-sense miR-328 oligonucleotide, 20 mer] | 0.054 mm | −0.036 (0.079)* mm | 97% | 97% | 90% | inhibited | activity in treating myopia in mice (in words) [1]: effective in treating myopia in mice; activity in treating myopia in mice (in words) ([1]; listed as 403): exhibited an activity for treating myopia; efficacy in reducing elongation of eyeball compared with 1% atropine (in words) ([2]; 1 μM): more effective than 1% atropine; Mean of delta AXL ([2]; 1 μM): −0.052 |
| 5′-+G*+G*+A*+A*G*G*G*C*A*G*A*G*A*G*G*+G*+C*+C*+A-3′ (antisense GGAAGGGCAGAGAGGGCCA; sugars from the 5' end l4 d11 l4, all phosphorothioate, methylation of C not given here) [LNA404, LNA-modified and PS bond-modified anti-sense miR-328 oligonucleotide, 19 mer] | 0.025 mm | −0.007 (0.100) mm | 98% | 98% | 99% | inhibited | – |
| 5′-AAGGGCAGAGAGGGCCA-3′ (DNA, backbone not given here) [DNA 17mer, anti-sense miR-328 oligodeoxyribonucleotide] | 0.065 mm | −0.047 (0.073)* mm | 43% | 41% | 48% | inhibited | activity in treating myopia in mice (in words) ([1]; listed as 17mer): exhibited an activity for treating myopia; activity in treating myopia in mice (in words) ([1]; listed as DNA17mer): effective in treating myopia in mice; average delta axial length compared with control animals (in words) [1]: statistically significantly smaller; safety in animal studies (in words) [4]: safe |
| 5′-AGGGCAGAGAGGGCCA-3′ (DNA, backbone not given here) [DNA 16mer, anti-sense miR-328 oligodeoxyribonucleotide] | 0.077 mm | −0.059 (0.061)* mm | 39% | 35% | 49% | inhibited | Delta axial length Mean ([5]; 10 nM): −0.056; right eye axial, mm Mean ([5]; 10 nM to right (myopia) eye): 3.083 mm; left eye axial, mm Mean ([5]; 10 nM to right eye): 3.139 mm; Delta axial length Mean ([5]; 100 nM): −0.069; right eye axial, mm Mean ([5]; 100 nM to right (myopia) eye): 3.023 mm; left eye axial, mm Mean ([5]; 100 nM to right eye): 3.092 mm; Delta axial length Mean ([5]; 1 μM): −0.058; right eye axial, mm Mean ([5]; 1 μM to right (myopia) eye): 3.052 mm; left eye axial, mm Mean ([5]; 1 μM to right eye): 3.110 mm; activity in treating myopia in mice (in words) ([1]; listed as 16mer): exhibited an activity for treating myopia; activity in treating myopia in mice (in words) ([1]; listed as DNA16mer): effective in treating myopia in mice; average delta axial length compared with control animals (in words) [1]: statistically significantly smaller; Delta axial length Mean ([6]; 10 μM): −0.234; Delta axial length Mean ([6]; 50 μM): −0.370; efficacy in reducing elongation of eyeball compared with 1% atropine (in words) ([2]; 1 μM): more effective than 1% atropine; Mean of delta AXL ([2]; 1 μM): −0.055; safety in animal studies (in words) [4]: safe |
| CN1[C@@H]2CC[C@H]1C[C@@H](OC(=O)C(CO)c1ccccc1)C2 (stereo partly drawn) [Atropine, atropine, reference compound] | – | – | – | – | – | – | Delta axial length Mean ([5]; 1% atropine): −0.060; right eye axial, mm Mean ([5]; 1% atropine to right (myopia) eye): 3.049 mm; left eye axial, mm Mean ([5]; 1% atropine to right eye): 3.108 mm; Mean of delta AXL ([2]; 1% atropine): −0.037 |
| 5′-GGGCAGAGAGGGCCA-3′ (DNA, backbone not given here) [15mer, anti-sense miR-328 oligodeoxyribonucleotide] | – | – | – | – | – | did not show any activity; also recorded: no inhibitory effect | – |
| 5′-+G*+A*+A*+G*G*G*C*A*G*A*G*A*G*G*+G*+C*+C*+A-3′ (antisense GAAGGGCAGAGAGGGCCA; sugars from the 5' end l4 d10 l4, all phosphorothioate, methylation of C not given here) [LNA405, LNA-modified and PS bond-modified anti-sense miR-328 oligonucleotide, 18 mer] | 0.035 mm | −0.017 (0.054) mm | 98% | 98% | 99% | inhibited | – |
